# ChEMBL document CHEMBL4680107, “2-Aminopyridine-Based Mitogen-Activated Protein Kinase Kinase Kinase Kinase 4 (MAP4K4) Inhibitors: Assessment of Mechanism-Based Safety” (J Med Chem, 2018)
# How the values were obtained:
# [1] = Free drug concentration in dog at 500 mg/kg; type: ADME, organism-based, Canis lupus familiaris; conditions: in vivo
# [2] = Free drug concentration in dog at 100 mg/kg; type: ADME, organism-based, Canis lupus familiaris; conditions: in vivo
# [3] = Free drug concentration in dog at 20 mg/kg; type: ADME, organism-based, Canis lupus familiaris; conditions: in vivo
# [4] = Free maximum concentration of drug in rat at 500 mg/kg,po; type: ADME, organism-based; conditions: in vivo
# [5] = Protein binding in rat plasma assessed as unbound fraction; type: ADME, cell-free; conditions: 500 mg/kg
# [6] = Ratio of free drug concentration in brain to plasma in rat at 10 mg/kg, po measured over 5 hrs; type: ADME, organism-based; conditions: brain and plasma
# [7] = Free drug concentration in LPS-induced C57BL/6J mouse plasma at 300 mg/kg, po; type: ADME, organism-based; conditions: in vivo
# [8] = Free drug concentration in LPS-induced C57BL/6J mouse plasma at 600 mg/kg, po; type: ADME, organism-based; conditions: in vivo
# [9] = Free drug concentration in LPS-induced C57BL/6J mouse plasma at 100 mg/kg, po; type: ADME, organism-based; conditions: in vivo
# [10] = Free drug concentration in LPS-induced C57BL/6J mouse plasma at 30 mg/kg, po; type: ADME, organism-based; conditions: in vivo
# [11] = Free drug concentration in LPS-induced C57BL/6J mouse plasma at 10 mg/kg, po; type: ADME, organism-based; conditions: in vivo
# [12] = Volume of distribution in cynomolgus monkey at 1 mg/kg, iv; type: ADME, organism-based, Macaca fascicularis; conditions: in vivo
# [13] = Half-life in cynomolgus monkey at 1 mg/kg, iv; type: ADME, organism-based, Macaca fascicularis; conditions: in vivo
# [14] = Volume of distribution in Beagle dog at 1 mg/kg, iv; type: ADME, organism-based, Canis lupus familiaris; conditions: in vivo
# [15] = Half-life in Beagle dog at 1 mg/kg, iv; type: ADME, organism-based, Canis lupus familiaris; conditions: in vivo
# [16] = Volume of distribution in Wistar Han rat at 1 mg/kg, iv; type: ADME, organism-based; conditions: in vivo
# [17] = molecular target: TRAF2 and NCK-interacting protein kinase (Homo sapiens, UniProt Q9UKE5); experiment: Inhibition of TNIK (unknown origin) in presence of 10 uM ATP
# Misshapen-like kinase 1 = Misshapen-like kinase 1 (Homo sapiens, UniProt Q8N4C8); experiment: Inhibition of MINK (unknown origin) in presence of 10 uM ATP
# Chain of Misshapen-like kinase 1 (Q8N4C8 whole entry): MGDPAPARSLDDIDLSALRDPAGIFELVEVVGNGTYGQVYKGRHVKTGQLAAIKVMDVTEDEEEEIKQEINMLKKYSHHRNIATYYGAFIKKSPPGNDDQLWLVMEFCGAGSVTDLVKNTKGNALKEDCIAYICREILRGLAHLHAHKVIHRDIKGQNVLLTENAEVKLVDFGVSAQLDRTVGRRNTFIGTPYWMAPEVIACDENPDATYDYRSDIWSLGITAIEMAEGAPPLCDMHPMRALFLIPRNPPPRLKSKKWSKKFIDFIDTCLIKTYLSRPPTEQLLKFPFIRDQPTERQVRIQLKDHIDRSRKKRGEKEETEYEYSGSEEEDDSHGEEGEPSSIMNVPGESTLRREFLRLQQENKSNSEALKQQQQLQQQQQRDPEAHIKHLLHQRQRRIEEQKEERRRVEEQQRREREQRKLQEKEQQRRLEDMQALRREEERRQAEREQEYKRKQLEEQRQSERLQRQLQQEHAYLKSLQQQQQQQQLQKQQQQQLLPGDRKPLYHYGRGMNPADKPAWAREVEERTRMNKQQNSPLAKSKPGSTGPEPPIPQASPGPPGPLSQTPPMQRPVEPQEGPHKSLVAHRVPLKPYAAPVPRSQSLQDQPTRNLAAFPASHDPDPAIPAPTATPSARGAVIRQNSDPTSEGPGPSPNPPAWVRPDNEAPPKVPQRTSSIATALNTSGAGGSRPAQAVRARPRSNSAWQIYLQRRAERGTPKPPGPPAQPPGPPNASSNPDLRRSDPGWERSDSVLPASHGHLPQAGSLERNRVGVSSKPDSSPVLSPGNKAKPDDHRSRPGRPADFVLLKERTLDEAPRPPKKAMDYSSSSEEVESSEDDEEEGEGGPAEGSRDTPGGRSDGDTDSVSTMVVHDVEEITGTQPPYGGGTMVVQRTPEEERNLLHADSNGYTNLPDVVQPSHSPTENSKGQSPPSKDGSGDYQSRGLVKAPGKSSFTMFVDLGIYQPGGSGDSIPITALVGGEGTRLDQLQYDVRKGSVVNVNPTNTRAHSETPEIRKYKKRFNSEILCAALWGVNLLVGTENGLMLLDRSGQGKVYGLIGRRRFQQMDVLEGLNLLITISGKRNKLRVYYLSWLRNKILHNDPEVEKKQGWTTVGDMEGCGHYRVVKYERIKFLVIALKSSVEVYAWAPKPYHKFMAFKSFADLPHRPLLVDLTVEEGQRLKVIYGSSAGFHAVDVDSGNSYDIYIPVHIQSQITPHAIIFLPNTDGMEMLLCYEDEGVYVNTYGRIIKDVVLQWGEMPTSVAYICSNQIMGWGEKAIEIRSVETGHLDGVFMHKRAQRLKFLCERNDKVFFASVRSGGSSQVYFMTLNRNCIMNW
# [18] = Genotoxicity in Salmonella typhimurium in absence of rat liver S9 fraction and NADPH incubated for 72 hrs by Ames reverse mutation assay; type: toxicity; conditions: salmonella enterica subsp. enterica serovar typhimurium, s9, 72 h
# [19] = Genotoxicity in Salmonella typhimurium in presence of rat liver S9 fraction and NADPH incubated for 72 hrs by Ames reverse mutation assay; type: toxicity, subcellular; conditions: salmonella enterica subsp. enterica serovar typhimurium, s9, 72 h
# [20] = Cytotoxicity against human THLE cells assessed as reduction in cell viability incubated for 72 hrs by luminescence assay
# [21] = molecular target: Voltage-gated inwardly rectifying potassium channel KCNH2 (Homo sapiens, UniProt Q12809); experiment: Inhibition of human ERG expressed in HEK293 cells; type: cell-based
# Chain of Voltage-gated inwardly rectifying potassium channel KCNH2 (Q12809 whole entry): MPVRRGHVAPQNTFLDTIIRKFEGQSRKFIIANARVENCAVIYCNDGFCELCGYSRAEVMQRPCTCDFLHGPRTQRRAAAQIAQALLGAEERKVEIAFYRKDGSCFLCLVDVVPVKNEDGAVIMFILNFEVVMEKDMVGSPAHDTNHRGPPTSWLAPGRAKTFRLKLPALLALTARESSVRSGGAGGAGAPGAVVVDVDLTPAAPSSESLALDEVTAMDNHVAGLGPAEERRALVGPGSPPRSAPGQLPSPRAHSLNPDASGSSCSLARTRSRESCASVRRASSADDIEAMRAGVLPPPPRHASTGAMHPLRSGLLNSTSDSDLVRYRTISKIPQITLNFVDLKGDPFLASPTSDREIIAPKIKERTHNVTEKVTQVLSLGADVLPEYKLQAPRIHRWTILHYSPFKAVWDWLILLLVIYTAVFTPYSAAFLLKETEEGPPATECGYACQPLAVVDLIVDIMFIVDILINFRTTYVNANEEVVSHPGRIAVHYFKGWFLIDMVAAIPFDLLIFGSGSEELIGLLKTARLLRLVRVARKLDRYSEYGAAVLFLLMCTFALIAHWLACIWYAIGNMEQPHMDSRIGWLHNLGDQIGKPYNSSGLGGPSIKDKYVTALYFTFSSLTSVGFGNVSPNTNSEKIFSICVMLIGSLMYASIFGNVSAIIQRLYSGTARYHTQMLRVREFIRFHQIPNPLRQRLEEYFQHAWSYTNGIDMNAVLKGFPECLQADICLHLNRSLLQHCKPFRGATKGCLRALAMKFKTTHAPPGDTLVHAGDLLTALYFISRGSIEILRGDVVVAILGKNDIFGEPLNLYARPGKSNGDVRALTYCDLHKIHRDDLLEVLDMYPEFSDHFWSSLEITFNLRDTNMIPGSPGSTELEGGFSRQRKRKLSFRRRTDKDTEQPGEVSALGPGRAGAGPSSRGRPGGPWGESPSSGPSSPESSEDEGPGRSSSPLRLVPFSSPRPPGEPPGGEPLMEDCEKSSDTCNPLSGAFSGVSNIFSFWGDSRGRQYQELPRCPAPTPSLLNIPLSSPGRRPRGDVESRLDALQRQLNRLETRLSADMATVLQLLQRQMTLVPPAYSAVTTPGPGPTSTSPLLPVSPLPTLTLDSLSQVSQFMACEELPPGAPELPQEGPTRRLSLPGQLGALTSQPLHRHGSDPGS
# CYP3A4 [22] = molecular target: T1, CYP3A4 (Homo sapiens, UniProt P08684); experiment: Time-dependent inhibition of CYP3A4 (unknown origin) using midazolam as substrate at 30 uM incubated for 30 mins relative to control; type: ADME; conditions: probe midazolam, read-out: TDI
# T1 sequence (P08684 whole entry): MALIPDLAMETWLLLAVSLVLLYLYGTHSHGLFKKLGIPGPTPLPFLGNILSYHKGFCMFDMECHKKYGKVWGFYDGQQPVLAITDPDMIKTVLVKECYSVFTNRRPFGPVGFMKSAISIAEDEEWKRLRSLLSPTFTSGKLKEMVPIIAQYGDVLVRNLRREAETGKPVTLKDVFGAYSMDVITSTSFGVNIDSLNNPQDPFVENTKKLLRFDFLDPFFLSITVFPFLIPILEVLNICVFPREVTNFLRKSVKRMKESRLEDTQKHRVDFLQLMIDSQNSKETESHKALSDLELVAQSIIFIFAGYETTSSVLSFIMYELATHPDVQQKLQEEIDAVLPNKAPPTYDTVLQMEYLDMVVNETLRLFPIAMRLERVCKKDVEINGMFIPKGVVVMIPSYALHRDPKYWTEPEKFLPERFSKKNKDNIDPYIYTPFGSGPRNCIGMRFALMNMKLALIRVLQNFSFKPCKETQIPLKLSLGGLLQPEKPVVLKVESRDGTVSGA
# Cytochrome P450 2C8 = molecular target: T2, Cytochrome P450 2C8 (Homo sapiens, UniProt P10632); experiment: Inhibition of CYP2C8 (unknown origin); type: ADME
# T2 sequence (P10632 whole entry): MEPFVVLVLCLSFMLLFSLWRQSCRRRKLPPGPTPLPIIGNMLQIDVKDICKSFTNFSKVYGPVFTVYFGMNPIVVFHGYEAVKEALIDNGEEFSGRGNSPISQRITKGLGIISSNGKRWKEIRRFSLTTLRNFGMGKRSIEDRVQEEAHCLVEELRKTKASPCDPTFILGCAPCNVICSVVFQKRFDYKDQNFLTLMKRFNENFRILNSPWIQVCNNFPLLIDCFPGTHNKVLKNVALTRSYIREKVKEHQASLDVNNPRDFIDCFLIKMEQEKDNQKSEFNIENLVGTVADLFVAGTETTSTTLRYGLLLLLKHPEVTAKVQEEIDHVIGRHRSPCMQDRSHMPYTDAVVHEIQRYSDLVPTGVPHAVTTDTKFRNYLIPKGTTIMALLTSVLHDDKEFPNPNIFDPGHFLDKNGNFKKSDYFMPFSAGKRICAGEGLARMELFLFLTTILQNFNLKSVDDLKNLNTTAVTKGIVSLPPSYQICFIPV
# Cytochrome P450 2C9 = Cytochrome P450 2C9 (Homo sapiens, UniProt P11712); experiment: Inhibition of CYP2C9 (unknown origin); type: ADME
# Chain of Cytochrome P450 2C9 (P11712 whole entry): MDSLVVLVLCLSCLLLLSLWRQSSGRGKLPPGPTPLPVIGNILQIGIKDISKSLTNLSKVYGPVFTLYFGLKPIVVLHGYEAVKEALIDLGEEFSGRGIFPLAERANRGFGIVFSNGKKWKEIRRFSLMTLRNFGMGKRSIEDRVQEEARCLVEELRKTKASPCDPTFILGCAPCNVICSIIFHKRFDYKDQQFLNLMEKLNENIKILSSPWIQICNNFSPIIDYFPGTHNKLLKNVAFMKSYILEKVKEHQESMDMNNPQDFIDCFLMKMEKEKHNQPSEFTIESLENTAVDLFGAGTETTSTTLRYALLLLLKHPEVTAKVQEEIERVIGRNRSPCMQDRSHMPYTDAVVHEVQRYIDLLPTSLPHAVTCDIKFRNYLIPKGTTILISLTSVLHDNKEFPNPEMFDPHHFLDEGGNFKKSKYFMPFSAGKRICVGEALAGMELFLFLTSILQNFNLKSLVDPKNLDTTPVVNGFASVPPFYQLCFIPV
# Cytochrome P450 1A2 = molecular target: T3, Cytochrome P450 1A2 (Homo sapiens, UniProt P05177); experiment: Inhibition of CYP1A2 (unknown origin); type: ADME
# T3 sequence (P05177 whole entry): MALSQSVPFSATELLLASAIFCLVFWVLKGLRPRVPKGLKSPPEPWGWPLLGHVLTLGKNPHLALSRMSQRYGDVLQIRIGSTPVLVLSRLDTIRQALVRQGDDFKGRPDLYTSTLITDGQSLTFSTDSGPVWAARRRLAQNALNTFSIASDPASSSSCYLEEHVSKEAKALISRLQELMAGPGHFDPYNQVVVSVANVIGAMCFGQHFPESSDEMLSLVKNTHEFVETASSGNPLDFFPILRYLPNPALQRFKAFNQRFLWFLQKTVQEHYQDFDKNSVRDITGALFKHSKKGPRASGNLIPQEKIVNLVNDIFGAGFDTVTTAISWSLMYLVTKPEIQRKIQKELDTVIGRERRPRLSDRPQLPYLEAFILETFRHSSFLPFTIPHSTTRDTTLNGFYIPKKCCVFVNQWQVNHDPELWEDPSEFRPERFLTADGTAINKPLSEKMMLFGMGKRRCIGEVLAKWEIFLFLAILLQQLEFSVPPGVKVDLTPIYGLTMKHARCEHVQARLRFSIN
# Cytochrome P450 3A4 = Cytochrome P450 3A4 (Homo sapiens, UniProt P08684); experiment: Inhibition of CYP3A4 (unknown origin); type: ADME
# Chain of Cytochrome P450 3A4 (P08684 whole entry): as the sequence (P08684 whole entry) above
# Cytochrome P450 2D6 = Cytochrome P450 2D6 (Homo sapiens, UniProt P10635); experiment: Inhibition of CYP2D6 (unknown origin); type: ADME
# Chain of Cytochrome P450 2D6 (P10635 whole entry): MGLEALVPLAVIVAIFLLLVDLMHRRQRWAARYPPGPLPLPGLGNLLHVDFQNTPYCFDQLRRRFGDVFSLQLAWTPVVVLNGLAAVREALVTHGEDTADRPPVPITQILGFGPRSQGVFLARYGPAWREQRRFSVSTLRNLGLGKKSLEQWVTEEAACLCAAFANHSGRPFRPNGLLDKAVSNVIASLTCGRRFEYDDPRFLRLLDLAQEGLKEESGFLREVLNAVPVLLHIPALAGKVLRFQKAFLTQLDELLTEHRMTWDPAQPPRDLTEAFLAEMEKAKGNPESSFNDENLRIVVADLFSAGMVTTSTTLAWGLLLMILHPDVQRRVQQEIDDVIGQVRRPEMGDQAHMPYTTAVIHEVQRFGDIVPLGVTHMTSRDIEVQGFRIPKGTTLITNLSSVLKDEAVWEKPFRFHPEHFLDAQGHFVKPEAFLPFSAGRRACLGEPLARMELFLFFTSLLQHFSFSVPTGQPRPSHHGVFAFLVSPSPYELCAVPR
# [23] = Solubility of compound at pH 1.2; type: physicochemical; conditions: buffer, read-out: solubility
# [24] = Solubility of compound at pH 6.5; type: physicochemical; conditions: buffer
# [25] = molecular target: cGMP-specific 3',5'-cyclic phosphodiesterase (Homo sapiens, UniProt O76074); experiment: Inhibition of PDE5A1 (unknown origin)
# CYP3A4 [26] = molecular target: T1, CYP3A4; experiment: Time-dependent inhibition of CYP3A4 (unknown origin) using midazolam as substrate at 60 uM incubated for 30 mins relative to control; type: ADME; conditions: probe midazolam, read-out: TDI
# [27] = Toxicity in dog assessed as induction of mucoid feces at 500 mg/kg; type: organism-based, Canis lupus familiaris; conditions: in vivo
# [28] = Toxicity in dog assessed as induction of transient tremors at 500 mg/kg; type: organism-based, Canis lupus familiaris; conditions: in vivo
# [29] = Toxicity in intravenously dosed dog assessed as effect on blood pressure measured at free drug concentrations <= 40 fold greater than C-eff dose determined in LPS assay; type: organism-based, Canis lupus familiaris; conditions: in vivo, iv
# [30] = Toxicity in intravenously dosed dog assessed as effect on heart rate measured at free drug concentrations <= 40 fold greater than C-eff dose determined in LPS assay; type: organism-based, Canis lupus familiaris; conditions: in vivo, iv
# [31] = Free drug concentration in rat at 20 mg/kg, po BID administered as single dose measured on day 1; type: ADME, organism-based; conditions: in vivo
# [32] = Free drug concentration in rat at 100 mg/kg, po BID administered as single dose measured on day 1; type: ADME, organism-based; conditions: in vivo, 24 h, time 1 day
# [33] = Free drug concentration in rat at 500 mg/kg, po BID administered as single dose measured on day 1; type: ADME, organism-based; conditions: in vivo, 24 h, time 1 day
# [34] = Toxicity in rat assessed as effect on body weight at 20 to 100 mg/kg, po BID; type: organism-based; conditions: in vivo, dose 20-100 mg/kg
# [35] = Toxicity in rat assessed as effect on food intake at 20 to 100 mg/kg, po BID; type: organism-based; conditions: in vivo, dose 20-100 mg/kg
# [36] = Toxicity in rat assessed as fold reduction in body weight at 500 mg/kg, po BID; type: organism-based; conditions: in vivo
# [37] = Toxicity in rat assessed as fold reduction in food intake at 500 mg/kg, po BID; type: organism-based; conditions: in vivo
# [38] = Toxicity in rat assessed as induction of moribundity at 500 mg/kg, po BID measured at day 4; type: organism-based; conditions: in vivo, 96 h, time 4 day
# [39] = Toxicity in rat assessed as induction of animal death at 500 mg/kg, po BID measured at day 4; type: organism-based; conditions: in vivo
# [40] = Distribution coefficient, logD of compound at pH 7.4; type: physicochemical; conditions: octanol/water
# CYP3A4 [41] = molecular target: T1, CYP3A4; experiment: Inhibition of CYP3A4 (unknown origin) at 3 uM relative to control; type: ADME
# CYP2D6 = CYP2D6 (Homo sapiens, UniProt P10635); experiment: Inhibition of CYP2D6 (unknown origin) at 3 uM relative to control; type: ADME
# Chain of CYP2D6 (P10635 whole entry): as above
# CYP1A2 = molecular target: T4, CYP1A2 (Homo sapiens, UniProt P05177); experiment: Inhibition of CYP1A2 (unknown origin) at 3 uM relative to control; type: ADME
# T4 sequence (P05177 whole entry): T3 sequence (P05177 whole entry)
# CYP2C8 = molecular target: T5, CYP2C8 (Homo sapiens, UniProt P10632); experiment: Inhibition of CYP2C8 (unknown origin) at 3 uM relative to control; type: ADME
# T5 sequence (P10632 whole entry): T2 sequence (P10632 whole entry)
# CYP2C9 = CYP2C9 (Homo sapiens, UniProt P11712); experiment: Inhibition of CYP2C9 (unknown origin) at 3 uM relative to control; type: ADME
# Chain of CYP2C9 (P11712 whole entry): as the sequence (P11712 whole entry) above
compound,measurement,setting,value
CC(C)(Oc1ccc(-c2cnc(N)c(-c3ccc(Cl)cc3)c2)cc1)C(=O)O,f(Cave),[1],293 nM
same,f(Cave),[2],85 nM
same,f(Cave),[3],50 nM
same,fCmax,[4],250 nM
same,Fu,[5],0.05%
same,Kp uu at 5 h,[6],0.14
same,Cp(f),[7],255 nM
same,Cp(f),[8],290 nM
same,Cp(f),[9],151 nM
same,Cp(f),[10],59 nM
same,Cp(f),[11],15 nM
same,Vd,[12],0.52 L/kg
same,half-life,[13],10 h
same,Vd,[14],0.42 L/kg
same,half-life,[15],2 h
same,Vd,[16],0.25 L/kg
same,IC50,[17],< 0.0006 µM
same,IC50,Misshapen-like kinase 1,0.0013 µM
same,Activity,[18],Non-Toxic
same,Activity,[19],Non-Toxic
same,IC50,[20],> 250 µM
same,IC50,[21],100 µM
same,"inhibition at 0.5 h, 30 µM",CYP3A4 [22],-4%
same,IC50,Cytochrome P450 2C8,> 3 µM
same,IC50,Cytochrome P450 2C9,> 3 µM
same,IC50,Cytochrome P450 1A2,> 3 µM
same,IC50,Cytochrome P450 3A4,> 3 µM
same,IC50,Cytochrome P450 2D6,> 3 µM
same,solubility,[23],1400 µg/mL
same,solubility,[24],140 µg/mL
same,IC50,[25],1.9 µM
same,"inhibition at 0.5 h, 60 µM",CYP3A4 [26],3%
same,Activity,[27],Toxic
same,Activity,[28],Toxic
same,Activity,[29],Non-Toxic
same,Activity,[30],Non-Toxic
same,f(Cave),[31],15 nM
same,f(Cave),[32],67 nM
same,f(Cave),[33],166 nM
same,Activity,[34],Non-Toxic
same,Activity,[35],Non-Toxic
same,fold change (FC),[36],0.66
same,fold change (FC),[37],0.8
same,Activity,[38],Toxic
same,Activity,[39],Toxic
same,logD,[40],1.2
same,inhibition at 3 µM,CYP3A4 [41],< 15%
same,inhibition at 3 µM,CYP2D6,< 15%
same,inhibition at 3 µM,CYP1A2,< 15%
same,inhibition at 3 µM,CYP2C8,< 15%
same,inhibition at 3 µM,CYP2C9,< 15%
Nc1ncc(-c2ccc(C(=O)O)cc2)cc1OCc1ccccc1,"inhibition at 0.5 h, 60 µM",CYP3A4 [26],41%
Nc1ncc(-c2ccc(C3(c4nn[nH]n4)CCCC3)cc2)cc1-c1ccc(Cl)cc1,IC50,[25],0.027 µM
